Literature values in patent US10829440B2, “Antibacterial compounds and methods of making and using same” (Brown University, priority 2015, dated 2020).

Test system: LT
Details: cited from earlier work

In the case of `CC1=N[C@@H]2[C@@H](O)[C@H](O)[C@@H](CO)O[C@@H]2S1` [NAG-thiazoline], the “binding of LT” value is listed as “weak binder”.
